Assay [1] concerns the target T1, Autotaxin (Homo sapiens, UniProt Q13822). Briefly: Activation of C-terminal FLAG-tagged human recombinant autotaxin using paranitrophenyl thymidine monophosphate as substrate at 10 uM measured every 2 mins by […] assay.
Assay [2] has as its target T1, Autotaxin. Briefly: Inhibition of C-terminal FLAG-tagged human recombinant autotaxin using synthetic substrate FS-3 at 10 uM measured every 2 mins by FRET assay relative to control.
For assay [3], the target named is T1, Autotaxin. Briefly: Inhibition of C-terminal FLAG-tagged human recombinant autotaxin using synthetic substrate FS-3 measured every 2 mins by FRET assay.
Assay [4] deals with A2058. Briefly: Reduction of cell migration in human A2058 cells at 30 uM after 4 to 48 hrs by monolayer scratch assay. The format is functional. The arrangement: scale not given: the % may be the effect or the level left.
Assay [5] has as its system A2058. Briefly: Reduction of autotaxin-induced cell migration in human A2058 cells at 30 uM after 4 to 48 hrs by monolayer scratch assay. It counts as functional. The arrangement: scale not given: the % may be the effect or the level left.
The subject of assay [6] is A2058. Briefly: Reduction of autotaxin and lysophosphatidyl choline-induced cell migration in human A2058 cells at 30 uM after 4 to 48 hrs by monolayer scratch assay. The format is functional. The arrangement: scale not given: the % may be the effect or the level left.
Assay [7] deals with T1, Autotaxin. Briefly: Competitive inhibition of C-terminal FLAG-tagged human recombinant autotaxin using synthetic substrate FS-3 by Michaelis-Menten equation analysis.
Assay [8] relates to A2058. Briefly: Cytotoxicity against human A2058 cells assessed as reduction of cell number at 30 uM after 24 hrs by MTS assay. It counts as functional.
Assay [9] deals with A2058. Briefly: Reduction of lysophosphatidyl choline-induced cell migration in human A2058 cells at 30 uM after 4 to 48 hrs by monolayer scratch assay. It counts as functional. The arrangement: scale not given: the % may be the effect or the level left.
In assay [10] the target is T1, Autotaxin. Briefly: Inhibition of C-terminal FLAG-tagged human recombinant autotaxin using paranitrophenyl thymidine monophosphate as substrate at 10 uM measured every 2 mins by […] assay relative to control.
The target in assay [11] is T1, Autotaxin. Briefly: Activation of C-terminal FLAG-tagged human recombinant autotaxin using paranitrophenyl thymidine monophosphate as substrate measured every 2 mins by […] assay.
The test system of assay [12] is A2058. Briefly: Reduction of lysophosphatidic acid-induced cell migration in human A2058 cells at 30 uM after 4 to 48 hrs by monolayer scratch assay. The format is functional. The arrangement: scale not given: the % may be the effect or the level left.
For assay [13], the system named is A2058. Briefly: Cytotoxicity against human A2058 cells assessed as reduction lysophosphatidic acid-induced of cell proliferation at 30 uM after 24 hrs by MTS assay. It counts as functional. The arrangement: scale not given: the % may be the effect or the level left. On the technique in general: Tetrazolium assays rely on reduction of a dye to a coloured formazan, in cell work by metabolically active cells.

Assay [14] deals with A2058. Briefly: Cytotoxicity against human A2058 cells assessed as reduction autotaxin-induced of cell proliferation at 30 uM after 24 hrs by MTS assay. The format is functional. The arrangement: scale not given: the % may be the effect or the level left.
In assay [15] the test system is A2058. Briefly: Cytotoxicity against human A2058 cells assessed as reduction lysophosphatidyl choline-induced of cell proliferation at 30 uM after 24 hrs by MTS assay. It counts as functional. The arrangement: scale not given: the % may be the effect or the level left.
For assay [16], the system named is A2058. Briefly: Cytotoxicity against human A2058 cells assessed as reduction lysophosphatidyl choline and autotaxin-induced of cell proliferation at 30 uM after 24 hrs by MTS assay. The arrangement: scale not given: the % may be the effect or the level left. It counts as functional.

Activity calls are given as the source filed them. The rule behind the calls is not given here.

On to `COc1cc(/C=C2/SC(=S)N(Cc3ccccc3)C2=O)ccc1OC(=O)c1ccc(F)cc1`, for which the outcome at Autotaxin [1] was Active.
In the case of `CC(=O)Nc1ccc(S(=O)(=O)N/N=C/c2ccc(OCc3ccccc3)cc2)cc1`, the result on Autotaxin [1] was Active.
As to `CC(C)c1ccc(OCC(=O)N2CCN(c3ccc(C(=O)N4CCCC4C(N)=O)cn3)CC2C)cc1` (stereo unspecified), the inhibition at Autotaxin [2] is 88.5%; at Autotaxin [10], 29.3%. Moreover, the IC50 at Autotaxin [3] was 1200 nM. The Activity is recorded as 43% in the assay on A2058 [4], 19% with A2058 [5], 16% with A2058 [6] and 35% with A2058 [9]. In addition, the Ki at Autotaxin [7] came to 1600 nM. The result in the assay on A2058 [8] was inactive.
For `O=C(O)c1ccc(-c2ccc(/C=C3/SC(=O)N(Cc4ccc(F)cc4)C3=O)o2)cc1`, the inhibition at Autotaxin [2] was 68.8%. At Autotaxin [3], the IC50 is 4400 nM.
`CCOC(=O)C1=C(C)N=c2s/c(=C/c3ccc(O)c(OC)c3)c(=O)n2[C@H]1c1cccc2ccccc12`: at Autotaxin [1], the outcome was Active.
With `CC(C)Cc1ccc(C(C)C(=O)N2CCC(CCCC3CCN(c4ccc(C(=O)NC(C(N)=O)C(C)O)cn4)CC3)CC2)cc1` (stereo unspecified), the inhibition on Autotaxin [2] is 87.3%. Also, the IC50 at Autotaxin [3] is 800 nM. Also, the Ki at Autotaxin [7] was 800 nM. The result with A2058 [8] was Active. Besides, on Autotaxin [11], the EC50 stood at 4310 nM.
For the molecule `O=C(Cn1c(=O)sc2cccc(Cl)c21)OCc1cccc(Oc2ccccc2)c1`, the outcome on Autotaxin [1] was Active.
Consider `COc1cc(/C=C2/SC(=S)N(Cc3ccccc3)C2=O)ccc1OC(=O)c1ccco1`, for which, on Autotaxin [1], the result was Active.
On to `CC(O)C(NC(=O)c1ccc(N2CCN(C(=O)Cc3cccc4ccccc34)CC2)nc1)C(N)=O` (stereo unspecified), for which, at Autotaxin [1], the result was Active.
With `CCOC(=O)C1=C(C)N=c2s/c(=C/c3cccc(OC)c3O)c(=O)n2[C@@H]1c1ccccc1`, the result on Autotaxin [1] was Active.
Regarding `COc1cc(CCNC(=O)c2ccc3c(c2)nc(-c2cccc4ccccc24)n3CCc2ccc(OC)c(OC)c2)cc(OC)c1`, on Autotaxin [2], the inhibition came to 63.8%. For the same molecule, on Autotaxin [3], the IC50 was found to be 1100 nM.
`COc1cc(C2CC(=O)NC(SCC(=O)Nc3ccc(Br)cc3)=C2C#N)ccc1O` (stereo unspecified): the Activity in the assay on A2058 [12] is 57%; in the assay on A2058 [4], 60%; with A2058 [5], 61%; with A2058 [6], 60%; in the assay on A2058 [13], 28%; in the assay with A2058 [9] it was 59%. Further, the inhibition at Autotaxin [2] stood at 68.6%. Besides, at Autotaxin [3], the IC50 is 3800 nM. Moreover, on Autotaxin [7], the Ki was 9800 nM.
Turning to `O=C(O)c1ccccc1-c1ccc(/C=C2/SC(=S)N(Cc3ccccc3)C2=O)o1`, the inhibition at Autotaxin [2] was determined as 93.7%. Also, on Autotaxin [3], the IC50 was 2400 nM.
On to `CC(O)C(NC(=O)c1ccc(N2CCC(CCCC3CCN(C(=O)CCC(=O)c4ccccc4)CC3)CC2)nc1)C(N)=O` (stereo unspecified), for which the Activity in the assay on A2058 [12] came to 22%; with A2058 [5], 33%; in the assay on A2058 [6] it was 38%; with A2058 [13], 27%; in the assay with A2058 [9], 28%; in the assay with A2058 [14] it was 30%. Besides, the inhibition at Autotaxin [2] amounted to 87.4%. Besides, on Autotaxin [3], the IC50 was 900 nM. Also, on Autotaxin [7], the Ki was determined as 500 nM.
Take `CC1CN(c2ccc(C(=O)N3CCCC3C(N)=O)cn2)CCC1C(=O)COc1cccc2ccccc12` (stereo unspecified): the Activity turned out to be 30% in the assay with A2058 [12]; 36% in the assay with A2058 [15]; 39% in the assay with A2058 [4]; 34% in the assay on A2058 [5]; 25% in the assay on A2058 [6]; 44% with A2058 [13]. Further, the Activity in the assay on A2058 [16] was found to be 27%; in the assay with A2058 [8] it was 49%; in the assay with A2058 [9] it was 24%; in the assay with A2058 [14], 36%. Moreover, the inhibition was found to be 64.7% on Autotaxin [2] and 10.6% on Autotaxin [10]. For the same molecule, the IC50 on Autotaxin [3] worked out at 1000 nM. Further, the Ki at Autotaxin [7] stood at 1600 nM.
For the molecule `COc1ccc(OCCNC(=S)Nc2ccc(-c3ccccc3)cc2)cc1`, on Autotaxin [1], the outcome was Active.
Consider `CC1CCC(C(C)C)C(OCC(=O)N2CCC(CCCC3CCN(c4ccc(C(=O)N5CCCC5C(N)=O)cc4)CC3)CC2)C1` (stereo unspecified), for which, on Autotaxin [2], the inhibition is 90.5%. Further, at Autotaxin [3], the IC50 turned out to be 800 nM. For the same molecule, the Ki at Autotaxin [7] was determined as 100 nM. Moreover, in the assay with A2058 [8], the result was Active. The EC50 at Autotaxin [11] amounted to 2790 nM.
As for `O=C(O)c1cc(-c2ccc(/C=C3\S/C(=N\c4ccccc4)N(Cc4ccccc4)C3=O)o2)ccc1Cl`, the result on Autotaxin [1] was Active.
`CC(O)C(NC(=O)c1ccc(N2CCC(CCCC3CCN(C(=O)Cc4ccc(-c5ccccc5)cc4)CC3)CC2)nc1)C(N)=O` (stereo unspecified): on Autotaxin [2], the inhibition is 85.3%. In addition, the IC50 on Autotaxin [3] was 900 nM. Besides, the Ki at Autotaxin [7] stood at 200 nM. The outcome in the assay with A2058 [8] was Active. Besides, on Autotaxin [11], the EC50 is 4440 nM.
Regarding `COC(=O)C1C(=O)NC(SCC(=O)Nc2ccc(C)cc2Br)=C(C#N)C1c1ccc(OC)cc1` (stereo unspecified), the result at Autotaxin [1] was Active.
As for `CC(C)C1C(=O)Nc2cc(S(=O)(=O)NCc3ccccc3)ccc2N1C(=O)CN1CCCCC1` (stereo unspecified), the inhibition on Autotaxin [2] was 62.3%. Besides, at Autotaxin [3], the IC50 came out at 6200 nM.
Consider `CCOc1cc(/C=C2/SC(=S)N(Cc3ccccc3)C2=O)ccc1OC(=O)c1ccc(F)cc1`, for which the outcome at Autotaxin [1] was Active.
As to `COc1cc(/C=c2/sc3nc4ccccc4n3c2=O)cc(Br)c1OCc1ccccc1Cl`, the outcome on Autotaxin [1] was Active.
Still for that read-out and setting: as for `COc1ccc(Cl)cc1NC(=O)CSC1=C(C#N)C(c2ccc(OC)c(OC)c2)CC(=O)N1` (stereo unspecified), the entry is “Active”.
For the molecule `COc1ccc(CCNC(=O)c2ccc3c(c2)nc(-c2cc(OC)c(OC)c(OC)c2)n3CCc2ccc(OC)c(OC)c2)cc1OC`, at Autotaxin [2], the inhibition was found to be 30%.
The same measure, in the same setting: next, `Cc1cc(C)cc(CC(=O)N2CCN(c3ccc(C(=O)NC(C(N)=O)C(C)O)cn3)CC2)c1` (stereo unspecified): 20%; `CCCOC(=O)c1ccc(/N=C/c2cccc(OC)c2O)cc1`: 10%.
Regarding `Cc1ccc(-c2ccc(-c3nnc(CCCC(=O)NC(CO)CO)o3)cc2)cc1`, the inhibition at Autotaxin [2] is 10%.
For the molecule `CCc1cc2c(cc3c(=O)n(CCCC(=O)NCc4ccc(OC(C)C)cc4)ncn32)s1`, the inhibition on Autotaxin [2] is 20%.
As for `COc1cccc(/C=C2/NC(=O)N(c3cccc(Cl)c3)C2=O)c1OCc1cccc(C(=O)O)c1`, the inhibition at Autotaxin [2] was 30%.
Regarding `CCCSC1=C(C#N)C(c2cc(Br)c(O)c(OC)c2)CC(=O)N1` (stereo unspecified), the outcome on Autotaxin [1] was Active.
Consider `CCCc1ccc(S(=O)(=O)Oc2ccccc2-c2cc(CC)n(CCN3CCCCC3)n2)cc1`, for which, on Autotaxin [2], the inhibition was 61.5%. Moreover, at Autotaxin [3], the IC50 turned out to be 4900 nM.
For `Cc1cc(C)cc(CC(=O)N2CCC(CCCC3CCN(c4ccc(C(=O)NC(C(N)=O)C(C)O)cn4)CC3)CC2)c1` (stereo unspecified), on Autotaxin [2], the inhibition was found to be 83.2%. Also, the IC50 on Autotaxin [3] is 900 nM. Moreover, the outcome in the assay with A2058 [4] and in the assay with A2058 [8] was inactive. The Ki on Autotaxin [7] stood at 17900 nM.
As to `CC1CCC(C(C)C)C(OCC(=O)N2CCCN(c3ncccc3C(=O)N3CCCC3C(N)=O)CC2)C1` (stereo unspecified), the inhibition on Autotaxin [2] is 20%.
`CCN(CCCCOC(=O)c1ccc(OC)c(OC)c1)C(C)Cc1ccc(OC)cc1` (stereo unspecified): at Autotaxin [2], the inhibition came out at 10%.
Same read-out and setting: next, `COc1cc(/C=N/NC(=O)c2ccc(NC(=O)c3ccc(F)cc3)cc2)cc(Cl)c1O`: 10%; `COc1ccc(CCn2c(C(C)Oc3ccccc3)nc3cc(C(=O)NCCOCCO)ccc32)cc1OC` (stereo unspecified): 20%; `CCCCCCOc1ccc(/C=N/c2ccc(-c3ccc(/N=C/c4ccc(OCCCCCC)c(OC)c4)cc3)cc2)cc1CC`: 79.1%.

One may read the inhibition as the relative decrease from the control value, in per cent. The term IC50 denotes the concentration needed to halve the response being measured. What is called Ki is a dissociation constant, usually derived from enzyme kinetics or from competition with a known ligand. Broadly, the EC50 is the concentration that produces a half-maximal response.

These data come from ChEMBL document CHEMBL2417420, “Autotaxin inhibition: development and application of computational tools to identify site-selective lead compounds” (Bioorg Med Chem, 2013).
